From US20090111741A1, “METHOD FOR TREATING AND/OR […] SEEKING BEHAVIOR” (priority 2007, published 2009)
Read-outs that look alike come from different tables or passages of the source. Square brackets hold non-standard residues; d marks the D form. Peptide text beside a SMILES is read from it.

Key:
[1] = BBMEC permeability (in-vitro model of the blood-brain barrier); details: for Papp: pH 7.4
[2] = metabolic stability in rat plasma; format: in vitro ADME; details: read-out: Rat plasma t1/2
From the text: The metabolic stability of the peptides depends on the modifications to the peptides. […] As expected, peptides without N-terminal modification were rapidly metabolized (Table 2), presumably by aminopeptidases. […] Homogenization is likely to rupture cell membranes, releasing intracellular proteases that could metabolize these peptides, so that this system may not accurately reflect the metabolism that occurs in vivo. Endopeptidases capable of metabolizing Dyn A are also present on red blood cells, and can rapidly metabolize some Dyn A-(1-11) amide analogs, e.g. arodyn.

[3] = biological target: T1, kappa-opioid receptor (KOR) (Mus musculus, UniProt P33534); details: animal models, after a single dose; cited from earlier work
T1 construct: from tissue; host or cells: living C57B1/6J mice (central and peripheral KOR)

kappa-opioid receptor = details: in vivo; cited from earlier work
KOR = KOR (Rattus norvegicus, UniProt P34975); assay: antagonist activity (adenylyl cyclase assay); format: cell-based
in vitro = details: rat, brain homogenate, half life (t1/2) in rat brain homogenate
[4] = biological target: kappa-opioid receptor (KOR) (Rattus norvegicus, UniProt P34975); assay: binding affinity (Ki) at KOR
[5] = observation of side effects in mice; details: mouse, in vivo
From the text: The ability of zyklophin to cross the BBB allows for any type of systemic administration, such as subcutaneous administration. Accordingly, zyklophin can be administered in a manner other than, but including, intercerebroventricular administration. Moreover, the ability of zyklophin to cross the BBB allows for a myriad of formulation opportunities, where the formulation can be prepared for a suitable mode or route of administration. As a consequence of having high selectivity for KOR and BBB permeability, zyklophin is a favorable drug candidate and as a lead drug for derivatizations and analoging. […] The mice data is discussed in more detail herein and in the incorporated references.

[6] = rat, blood
[7] = rat, brain homogenate, half life (t1/2) in rat brain homogenate

T1 sequence (P33534 whole entry): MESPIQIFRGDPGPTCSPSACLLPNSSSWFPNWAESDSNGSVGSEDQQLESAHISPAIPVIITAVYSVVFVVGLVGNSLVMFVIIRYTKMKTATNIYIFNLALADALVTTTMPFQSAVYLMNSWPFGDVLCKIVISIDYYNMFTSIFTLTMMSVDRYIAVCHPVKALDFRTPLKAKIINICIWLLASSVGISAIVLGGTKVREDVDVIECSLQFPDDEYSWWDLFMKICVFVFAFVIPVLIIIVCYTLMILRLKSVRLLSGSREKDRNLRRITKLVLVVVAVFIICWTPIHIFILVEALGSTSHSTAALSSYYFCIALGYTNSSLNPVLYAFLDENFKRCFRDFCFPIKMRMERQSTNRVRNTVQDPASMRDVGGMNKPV
Sequence of KOR (P34975 whole entry): as the sequence (P33534 whole entry) above, with D11E, S17A, S51P, A308V counted along it
Sequence of kappa-opioid receptor (KOR) (Rattus norvegicus, UniProt P34975) (P34975 whole entry): as the sequence (P33534 whole entry) above, with D11E, S17A, S51P, A308V counted along it

Which efflux ratio [1] does the source give for CC[C@H](C)[C@H](NC(=O)[C@H](CCCNC(=N)N)NC(=O)[C@H](CCCNC(=N)N)NC(=O)[C@H](CC(C)C)NC(=O)[C@H](Cc1ccccc1)NC(=O)CNC(=O)CNC(=O)[C@H](Cc1ccc(O)cc1)NC(C)=O)C(=O)N[C@@H](CCCNC(=N)N)C(=O)N1CCC[C@H]1C(=O)N[C@@H](CCCCN)C(N)=O [Ac-Dyn A-(1-11)NH2] here?
Its efflux ratio is 2.4.

And the Papp [1]?
The Papp was 7.1 ± 2.3 ×10⁻⁶ cm/s.

And the half-life [2]?
The half-life was 1.85 ± 0.283 h.

With Oc1ccc2c3c1O[C@H]1c4[nH]c5c(c4C[C@@]4(O)[C@@H](C2)N(CC2CC2)CC[C@]314)C[C@@]1(O)[C@H]2Cc3ccc(O)c4c3[C@@]1(CCN2CC1CC1)[C@H]5O4 [nor-binaltorphimine] as the molecule, how does the “duration of action of KOR antagonism (literature)” value [3] read?
The value was “prolonged duration of action”.

Which results are given for CC(C)[C@@H](CN1CC[C@@](C)(c2cccc(O)c2)[C@@H](C)C1)NC(=O)[C@H]1Cc2ccc(O)cc2CN1 [JDTic, (3R)-7-hydroxy-N-{(1S)-1-{[(3R,4R)-4-(3-hydroxyphenyl)-3,4-dimethyl-1-piperidinyl]methyl}-2-methylpropyl}-1,2,3,4-tetrahydro-3-isoquinolinecarbox-amide]?
duration of action of KOR antagonism (literature) [3]: prolonged duration of action; effect on stress-induced reinstatement of cocaine seeking (literature) (kappa-opioid receptor): suppress stress-induced reinstatement of cocaine self-administration

For CC[C@H](C)[C@H](NC(=O)[C@H](CCCN=C(N)N)NC(=O)[C@H](CCCN=C(N)N)NC(=O)[C@H](CC(C)C)NC(=O)[C@H](Cc1ccccc1)NC(=O)CNC(=O)CNC(=O)[C@@H](N)Cc1ccc(O)cc1)C(=O)N[C@@H](CCCN=C(N)N)C(=O)N1CCC[C@H]1C(=O)N[C@@H](CCCCN)C(N)=O [Dyn A-(1-11)NH2, Dynorphin A-(1-11) amide], which efflux ratio [1] is on record?
The efflux ratio was 0.9.

What about the Papp [1] of the same molecule?
Its Papp is 3.8 ± 1.3 ×10⁻⁶ cm/s.

What about the half-life [2] of the same molecule?
The half-life was less than 0.0333 h.

What does the source list for N=C(N)NCCC[C@@H]1NC(=O)[C@H](CCCNC(=N)N)NC(=O)[C@H](NC(=O)[C@H](Cc2ccccc2)NC(=O)CNC(=O)CNC(=O)[C@H](Cc2ccc(O)cc2)NCc2ccccc2)CC(=O)NC[C@@H](C(=O)N[C@@H](CCCNC(=N)N)C(=O)N2CCC[C@H]2C(=O)N[C@@H](CCCCN)C(N)=O)NC1=O [zyklophin, [N-benzylTyr^1,cyclo(D-Asp^5,Dap^8)]Dyn A-(1-11) amide]?
Kb (KOR): 84 nM; half-life (in vitro): 1.17 h; Ki [4]: 30 ± 2 nM; side effects in mice [5]: no unwanted side affects have been observed

For CC(=O)N[C@@H](Cc1ccccc1)C(=O)N[C@@H](Cc1ccccc1)C(=O)N[C@@H](Cc1ccccc1)C(=O)N[C@@H](CCCNC(=N)N)C(=O)N[C@@H](CC(C)C)C(=O)N[C@@H](CCCNC(=N)N)C(=O)N[C@@H](CCCNC(=N)N)C(=O)N[C@H](C)C(=O)N[C@@H](CCCNC(=N)N)C(=O)N1CCC[C@H]1C(=O)N[C@@H](CCCCN)C(N)=O [Arodyn, Ac[Phe^1,2,3,Arg^4,D-Ala^8]Dyn A-(1-11) amide] (Ac-FFFRLRR[dA]RPK-NH2), which half-life [6] is on record?
The half-life was less than 2 min.

What about the efflux ratio [1] of the same molecule?
The efflux ratio was 1.6.

What about the Papp [1] of the same molecule?
Its Papp is 7.6 ± 3 ×10⁻⁶ cm/s.

What about the half-life [7] of the same molecule?
Its half-life is 0.167 to 0.183 h.

And the half-life [2]?
The half-life was 1.73 ± 0.0667 h.
